In US20240382482A1, “PLASMA KALLIKREIN INHIBITORS” (TAKEDA PHARMACEUTICAL COMPANY LIMITED, priority 2021, published 2024) one finds EC50 data, which are given here for 27 compounds.

In general, pEC50 refers to −log10 of the EC50, conventionally taken in molar units.

The assay deals with human activated kallikrein enzyme (Homo sapiens, UniProt P03952). Description: Inhibition of human activated kallikrein enzyme, fluorogenic peptide substrate assay (500 pM enzyme format). Type of assay: biochemical. The note with it: 500 pM activated kallikrein, 300 μM PFR-AMC substrate, 30 min preincubation, 10 min reaction, room temperature; read-out: Primary Dose Response Assay: Average EC50. Summed up: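 500 pM enzyme preincubated 30 min at room temperature with inhibitor in 20 mM Tris pH 7.5, 150 mM NaCl, 1 mM EDTA, 0.1% PEG-400, 0.1% Triton X-100. Reaction started with 300 μM PFR-AMC and run 10 min at room temperature. AMC fluorescence read at ex 380/em 460 nm, and EC50 values reported as ranges.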
Sequence of human activated kallikrein enzyme (P03952 391-638 limits assumed): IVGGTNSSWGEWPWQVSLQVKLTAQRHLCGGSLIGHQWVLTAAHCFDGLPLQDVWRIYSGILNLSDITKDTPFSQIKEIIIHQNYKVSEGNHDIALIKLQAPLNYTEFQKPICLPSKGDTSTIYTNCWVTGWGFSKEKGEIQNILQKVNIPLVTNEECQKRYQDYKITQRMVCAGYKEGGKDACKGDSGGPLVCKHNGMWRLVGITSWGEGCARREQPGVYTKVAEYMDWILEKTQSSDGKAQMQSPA
Sequence of human activated kallikrein enzyme (P03952 20-390 partner limits assumed): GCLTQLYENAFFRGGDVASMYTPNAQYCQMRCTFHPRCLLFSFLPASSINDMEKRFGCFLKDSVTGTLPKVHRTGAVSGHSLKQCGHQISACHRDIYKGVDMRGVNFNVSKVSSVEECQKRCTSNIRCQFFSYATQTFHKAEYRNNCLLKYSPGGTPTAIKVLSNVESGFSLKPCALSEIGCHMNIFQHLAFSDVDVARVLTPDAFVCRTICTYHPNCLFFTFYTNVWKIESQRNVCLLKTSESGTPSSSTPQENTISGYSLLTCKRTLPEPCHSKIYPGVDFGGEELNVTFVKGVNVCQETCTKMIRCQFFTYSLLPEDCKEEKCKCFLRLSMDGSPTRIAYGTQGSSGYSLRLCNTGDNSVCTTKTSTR

pEC50: −log10 of the molar value.

Take `CCOC(=O)c1nc(NCc2cn3cc(C4CC4)ccc3n2)cc(NC(=O)Cc2ncn3ccc(Cl)cc23)n1` [Example 20, ethyl 4-(2-(7-chloroimidazo[1,5-a]pyridin-1-yl)acetamido)-6-(((6-cyclopropylimidazo[1,2-a]pyridin-2-yl)methyl)amino)pyrimidine-2-carboxylate]: the pEC50 was ≥ 8.30.

Regarding `N#Cc1cc(C2CC2)cn2cc(CNc3cc(NC(=O)Cc4cc(Cl)ccc4-n4cnnn4)ncn3)nc12` [Example 15, 2-(5-chloro-2-(1H-tetrazol-1-yl)phenyl)-N-(6-(((8-cyano-6-cyclopropylimidazo[1,2-a]pyridin-2-yl)methyl)amino)pyrimidin-4-yl)acetamide], the pEC50 was ≥ 8.30.

As for `CC(O)c1nc(NCc2cn3cc(C4CC4)ccc3n2)cc(NC(=O)Cc2ncn3ccc(Cl)cc23)n1` (stereo not drawn) [Example 103, 2-(7-chloroimidazo[1,5-a]pyridin-1-yl)-N-(6-(((6-cyclopropylimidazo[1,2-a]pyridin-2-yl)methyl)amino)-2-(1-hydroxyethyl)pyrimidin-4-yl)acetamide], the pEC50 is ≥ 8.30.

As for `O=C(Cc1ncn2ccc(Br)c(F)c12)Nc1cc(NCc2cn3cc(C4CC4)ccc3n2)ncn1` [Example 53, 2-(7-bromo-8-fluoroimidazo[1,5-a]pyridin-1-yl)-N-(6-(((6-cyclopropylimidazo[1,2-a]pyridin-2-yl)methyl)amino)pyrimidin-4-yl)acetamide], the pEC50 is ≥ 8.30.

Turning to `CC(C)(Cc1cc(C2CC2)cn2cc(CNc3cc(NC(=O)Cc4ncn5ccc(Cl)cc45)ncn3)nc12)C(=O)O` [Example 40, 3-(2-(((6-(2-(7-chloroimidazo[1,5-a]pyridin-1-yl)acetamido)pyrimidin-4-yl)amino)methyl)-6-cyclopropylimidazo[1,2-a]pyridin-8-yl)-2,2-dimethylpropanoic acid], the pEC50 was ≥ 8.30.

As to `O=C(Cc1ncn2ccc(Cl)cc12)Nc1cc(NCc2cn3cc(C4CC4)cc(CN4CCOCC4)c3n2)ncn1` [Example 48, 2-(7-chloroimidazo[1,5-a]pyridin-1-yl)-N-(6-(((6-cyclopropyl-8-(morpholinomethyl)imidazo[1,2-a]pyridin-2-yl)methyl)amino)pyrimidin-4-yl)acetamide], the pEC50 is ≥ 8.30.

Take `O=C(Cc1ncn2ccc(Cl)cc12)Nc1cc(NCc2cn3cc(C4CC4)cc(CO)c3n2)ncn1` [Example 44, 2-(7-chloroimidazo[1,5-a]pyridin-1-yl)-N-(6-(((6-cyclopropyl-8-(hydroxymethyl)imidazo[1,2-a]pyridin-2-yl)methyl)amino)pyrimidin-4-yl)acetamide]: the pEC50 is ≥ 8.30.

Regarding `O=C(Cn1c(=O)oc2ccc(Cl)cc21)Nc1cc(NCc2cn3cc(C4CC4)ccc3n2)ccn1` [Example 124, 2-(5-chloro-2-oxobenzo[d]oxazol-3 (2H)-yl)-N-(4-(((6-cyclopropylimidazo[1,2-a]pyridin-2-yl)methyl)amino)pyridin-2-yl)acetamide], the pEC50 was 5.05 to 6.30.

In the case of `O=S(=O)(Nc1cc(NCc2cn3cc(C4CC4)ccc3n2)ncn1)C1CC1c1cccc(Cl)c1` (stereo not drawn) [Example 67, 2-(3-chlorophenyl)-N-(6-(((6-cyclopropylimidazo[1,2-a]pyridin-2-yl)methyl)amino)pyrimidin-4-yl)cyclopropane-1-sulfonamide], the pEC50 was 5.05 to 6.30.

With `N#C/N=C(\NCc1cccc(Cl)c1)Nc1cc(NCc2cn3cc(C4CC4)ccc3n2)ccn1` [Example 128, (E)-1-(3-chlorobenzyl)-2-cyano-3-(4-(((6-cyclopropylimidazo[1,2-a]pyridin-2-yl)methyl)amino)pyridin-2-yl)guanidine], the pEC50 was 5.05 to 6.30.

Consider `COc1ccc2oc(=O)n(CC(=O)Nc3cc(NCc4cn5cc(C6CC6)ccc5n4)ccn3)c2c1` [Example 125, N-(4-(((6-cyclopropylimidazo[1,2-a]pyridin-2-yl)methyl)amino)pyridin-2-yl)-2-(5-methoxy-2-oxobenzo[d]oxazol-3 (2H)-yl)acetamide], for which the pEC50 was < 5.05.

On to `COc1ccc(-n2cnnn2)c(CNc2cc(C(O)c3cn4cc(C5CC5)ccc4n3)ncn2)c1F` (stereo not drawn) [Example 63, (6-cyclopropylimidazo[1,2-a]pyridin-2-yl)(6-((2-fluoro-3-methoxy-6-(H-tetrazol-1-yl)benzyl)amino)pyrimidin-4-yl)methanol], for which the pEC50 was 7.30 to 8.30.

Consider `Cc1cc(C(=N)N)cc(C)c1CNc1cc(OCc2cn3cc(C4CC4)cc(CC(=O)O)c3n2)ncn1` [Example 95, 2-(2-((6-(4-carbamimidoyl-2,6-dimethylbenzylamino)pyrimidin-4-yloxy)methyl)-6-cyclopropylimidazo[1,2-a]pyridin-8-yl)acetic acid], for which the pEC50 was ≥ 8.30.

With `C[C@H](c1cccc(Cl)c1)[C@@H](C)C(=O)Nc1cc(NCc2cn3cc(C4CC4)ccc3n2)ncn1` [Example 134, (2R,3S)-3-(3-chlorophenyl)-N-(6-(((6-cyclopropylimidazo[1,2-a]pyridin-2-yl)methyl)amino)pyrimidin-4-yl)-2-methylbutanamide], the pEC50 was 5.05 to 6.30.

For the compound `CN(Cc1cn2cc(C3CC3)cc(N3CCCC3=O)c2n1)c1cc(NC(=O)Cc2ncn3ccc(Cl)cc23)ncn1` [Example 18], the pEC50 was ≥ 8.30.

Regarding `NC(=O)c1ccc(Cl)cc1CC(=O)Nc1cc(NCc2cn3cc(C4CC4)ccc3n2)ncn1` [Example 11, 4-chloro-2-(2-((6-(((6-cyclopropylimidazo[1,2-a]pyridin-2-yl)methyl)amino)pyrimidin-4-yl)amino)-2-oxoethyl)benzamide], the pEC50 is 5.05 to 6.30.

`CCOC(=O)CCc1nc(NCc2c(C)cc(C(=N)NO)cc2C)cc(OCc2cn3cc(C4CC4)ccc3n2)n1` [Example 73, ethyl 3-(4-((6-cyclopropylimidazo[1,2-a]pyridin-2-yl)methoxy)-6-((4-(N-hydroxycarbamimidoyl)-2,6-dimethylbenzyl)amino)pyrimidin-2-yl)propanoate]: the pEC50 was 6.30 to 7.30.

As to `Cc1cc(C(=N)N)cc(C)c1CNc1cc(OCc2cn3cc(C4CC4)cc(CCC(=O)O)c3n2)ncn1` [Example 97, 3-(2-(((6-((4-carbamimidoyl-2,6-dimethylbenzyl)amino)pyrimidin-4-yl)oxy)methyl)-6-cyclopropylimidazo[1,2-a]pyridin-8-yl)propanoic acid], the pEC50 is ≥ 8.30.

Take `Cc1cc(C(=N)N)cc(C)c1CNc1cc(NCc2cn3cc(C4CC4)ccc3n2)ncn1` [Example 99, 4-(((6-(((6-cyclopropylimidazo[1,2-a]pyridin-2-yl)methyl)amino)pyrimidin-4-yl)amino)methyl)-3,5-dimethylbenzimidamide]: the pEC50 was ≥ 8.30.

For `CCCCCCOC(=O)NC(=N)c1cc(C)c(CNc2cc(OCc3cn4cc(C5CC5)ccc4n3)nc(CCC(=O)OCC)n2)c(C)c1` [Example 75, ethyl 3-(4-((6-cyclopropylimidazo[1,2-a]pyridin-2-yl)methoxy)-6-((4-(N-((hexyloxy)carbonyl)carbamimidoyl)-2,6-dimethylbenzyl)amino)pyrimidin-2-yl)propanoate], the pEC50 was 6.30 to 7.30.

Regarding `O=C(/C=C/c1cccc(Cl)c1)Nc1cc(NCc2cn3cc(C4CC4)ccc3n2)ccn1` [Example 114, (E)-3-(3-chlorophenyl)-N-(4-(((6-cyclopropylimidazo[1,2-a]pyridin-2-yl)methyl)amino)pyridin-2-yl)acrylamide], the pEC50 was 7.30 to 8.30.

For `O=C(Cc1cnc2[nH]cc(Cl)c2c1)Nc1cc(NCc2cn3cc(C4CC4)ccc3n2)ncn1` [Example 129, 2-(3-chloro-1H-pyrrolo[2,3-b]pyridin-5-yl)-N-(6-(((6-cyclopropylimidazo[1,2-a]pyridin-2-yl)methyl)amino)pyrimidin-4-yl)acetamide], the pEC50 was 6.30 to 7.30.

With `CCOC(=O)C(C)(C)Cc1cc(C2CC2)cn2cc(CNc3cc(NC(=O)Cc4ncn5ccc(Cl)cc45)ncn3)nc12` [Example 47, ethyl 3-(2-(((6-(2-(7-chloroimidazo[1,5-a]pyridin-1-yl)acetamido)pyrimidin-4-yl)amino)methyl)-6-cyclopropylimidazo[1,2-a]pyridin-8-yl)-2,2-dimethylpropanoate], the pEC50 is 7.30 to 8.30.

On to `Cc1cc(C(=N)N)cc(C)c1CNc1cc(OCc2cn3cc(C4CC4)ccc3n2)nc(CC(C)(C)C(=O)O)n1` [Example 92, 3-(4-((4-carbamimidoyl-2,6-dimethylbenzyl)amino)-6-((6-cyclopropylimidazo[1,2-a]pyridin-2-yl)methoxy)pyrimidin-2-yl)-2,2-dimethylpropanoic acid], for which the pEC50 is ≥ 8.30.

For the compound `O=C(Cc1cc(Cl)ccc1Br)Nc1cc(NCc2cn3cc(C4CC4)ccc3n2)ncn1` [Example 51, 2-(2-bromo-5-chlorophenyl)-N-(6-(((6-cyclopropylimidazo[1,2-a]pyridin-2-yl)methyl)amino)pyrimidin-4-yl)acetamide], the negative-log EC50 (pEC50) is < 5.05.

Consider `O=C(NCc1ncn2ccc(Cl)cc12)c1cnnc(OCc2cn3cc(C4CC4)ccc3n2)c1` [Example 66, N-((7-chloroimidazo[1,5-a]pyridin-1-yl)methyl)-6-((6-cyclopropylimidazo[1,2-a]pyridin-2-yl)methoxy)pyridazine-4-carboxamide], for which the pEC50 is 7.30 to 8.30.

Consider `CC(Nc1cc(NC(=O)Cc2ncn3ccc(Cl)cc23)ncn1)c1cn2cc(C3CC3)ccc2n1` (stereo not drawn) [Example 45, 2-(7-chloroimidazo[1,5-a]pyridin-1-yl)-N-(6-((1-(6-cyclopropylimidazo[1,2-a]pyridin-2-yl)ethyl)amino)pyrimidin-4-yl)acetamide], for which the pEC50 is 7.30 to 8.30.
